Measurements reported in patent publication US9956157B2, “Composition containing fucosterol for skin whitening or moisturizing” (INDUSTRY-ACADEMIC COOPERATION FOUNDATION, YONSEI UNIVERSITY, priority 2014, dated 2018).

Assays:
involucrin = test: Involucrin mRNA expression (RT-PCR) in HaCaT human keratinocytes; assay type: cell-based; conditions: HaCaT cells, fucosterol 5, 10, 20 μM, 24 hrs, FIG. 9
Experimental: HaCaT human keratinocytes were incubated in a Dulbecco's Modified Eagle's Media (DMEM) medium including 10% fetal bovine serum and then put in a 6-well plate with 2×10^5 cell/ml (the final volume of 3 ml). After being incubated for 24 hrs, the medium was removed and fucosterol which was dissolved in the DMEM medium was treated at 5, 10, and 20 μM concentrations, respectively. After 24 hrs, the total RNA was collected by using a TRIzol reagent (Invitrogen, Carlsbad, Calif., USA) and reverse-transcribed and then a reverse transcription-polymerase chain reaction (RT-PCR) analysis was performed below. First, for cDNA synthesis, the RNA was reverse-transcribed by reverse transcriptase. The RT-PCR was performed by specific primers below and the result was illustrated in FIG. 9.

tyrosinase = target: T1, tyrosinase (Mus musculus, UniProt P11344); test: Tyrosinase activity (L-DOPA, dopachrome) in α-MSH-stimulated B16F10 melanoma cells; assay type: cell-based; conditions: 200 nM α-MSH, fucosterol 5, 10, 20 μM, 48 hrs, P<0.01, FIG. 4
T1 construct: endogenous in cells; host or cells: B16F10 melanoma cells (α-MSH stimulated)
T1 sequence (P11344 19-533): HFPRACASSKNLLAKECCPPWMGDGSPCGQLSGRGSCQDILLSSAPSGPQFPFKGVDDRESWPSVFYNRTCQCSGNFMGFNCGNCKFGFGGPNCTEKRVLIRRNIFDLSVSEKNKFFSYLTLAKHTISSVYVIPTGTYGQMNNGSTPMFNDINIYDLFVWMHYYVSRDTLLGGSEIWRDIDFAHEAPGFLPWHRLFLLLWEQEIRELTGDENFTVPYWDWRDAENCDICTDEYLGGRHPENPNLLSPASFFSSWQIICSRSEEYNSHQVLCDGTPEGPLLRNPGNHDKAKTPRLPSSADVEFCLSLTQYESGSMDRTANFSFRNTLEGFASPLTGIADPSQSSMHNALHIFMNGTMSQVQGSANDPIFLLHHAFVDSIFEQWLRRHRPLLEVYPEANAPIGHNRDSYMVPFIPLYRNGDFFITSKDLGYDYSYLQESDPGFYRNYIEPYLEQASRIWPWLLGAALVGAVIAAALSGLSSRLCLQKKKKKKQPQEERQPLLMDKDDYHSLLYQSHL
Experimental: B16F10 melanoma cells were incubated in a DMEM medium including 10% fetal bovine serum and then added in a 6-well plate with 2.5×10^5 cell/mL (the final volume of 3 mL). After being incubated for 24 hrs, the medium was removed and fucosterol which was dissolved in the DMEM medium including 200 nM α-MSH was treated at 5, 10, and 20 μM concentrations, respectively. After 48 hrs, the incubated medium was removed from the 6-well plate and PBS including 1% Triton X-100 was added to collect the cells. The collected cells were centrifuged for 10 min and 150 μL of a supernatant was put in a 96-well plate and 50 μL of L-3,4-dihydroxyphenylalanine (L-DOPA) was added. With respect to an amount of dopachrome generated after incubated for 30 min at 37° C., absorbance was measured at 475 nm by using a microplate reader (Versa max, Sunnyvale, Calif., USA). In this case, cells without the fucosterol were set to a control group and the tyrosinase activity degree was measured in the control group and cells treated with the fucosterol. According to Equation 2 below, the tyrosinase activity compared with the control group was calculated and the result was illustrated in FIG. 4. Tyrosinase activity (%) compared with control group=Reaction absorbance of each test material/Reaction absorbance of control group×100 [Equation 2]

C/C=C(\CC[C@@H](C)[C@H]1CC[C@H]2[C@@H]3CC=C4C[C@@H](O)CC[C@]4(C)[C@H]3CC[C@]12C)C(C)C [fucosterol]
mRNA expression of involucrin (involucrin): increased
inhibitory effect on tyrosinase activity (tyrosinase): very excellent inhibitory effect
